# Measured values from ChEMBL document CHEMBL1125699, “Development of a novel series of (2-quinolinylmethoxy)phenyl-containing compounds as high-affinity leukotriene D4 receptor antagonists. 4. Addition of chromone moiety enhances leukotriene D4 receptor binding affinity” (J Med Chem, 1991).
# Target: T1, Cysteinyl leukotriene receptor 1 (Cavia porcellus) (UniProt Q2NNR5)
# T1 sequence (whole entry): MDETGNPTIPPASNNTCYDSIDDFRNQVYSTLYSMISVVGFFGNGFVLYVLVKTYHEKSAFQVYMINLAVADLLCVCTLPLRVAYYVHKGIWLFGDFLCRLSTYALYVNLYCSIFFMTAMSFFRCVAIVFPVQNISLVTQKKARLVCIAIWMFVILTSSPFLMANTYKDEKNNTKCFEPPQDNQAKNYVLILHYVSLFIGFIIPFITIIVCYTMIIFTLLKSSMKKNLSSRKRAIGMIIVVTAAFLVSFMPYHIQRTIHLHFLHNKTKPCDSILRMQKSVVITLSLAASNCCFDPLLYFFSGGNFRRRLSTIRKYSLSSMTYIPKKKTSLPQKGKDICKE
# Assay: Radioligand binding affinity against LTD4 receptor in guinea pig lung membranes at the concentration of 30 nM.
# Type: cell membranes
# Details: Membrane
row,Compound,inhibition
1,CCCc1c(OCc2cccc(OCc3ccc4ccccc4n3)c2)ccc2c1OC(C(=O)O)CC2=O (stereo not given),22%

# Target: T2, Cysteinyl leukotriene receptor 1 (Cavia porcellus, UniProt Q2NNR5)
# T2 sequence (Q2NNR5 whole entry): T1 sequence (whole entry)
# Assay: Binding affinity against LTD4 receptor in guinea pig lung membranes.
# Type: cell membranes
# Details: not given
row,Compound,Ki
1,O=C1CC(c2nnn[nH]2)Oc2cc(OCc3cccc(OCc4ccc5ccccc5n4)c3)ccc21 (stereo not given),0.1 nM
2,O=C1CC(C(=O)O)Oc2c(COc3ccc(OCc4ccc5ccccc5n4)cc3)cccc21 (stereo not given),13 nM
3,O=C1CC(c2nnn[nH]2)Oc2cc(CCc3cccc(OCc4ccc5ccccc5n4)c3)ccc21 (stereo not given),0.3 nM
4,O=C1CC(C(=O)O)Oc2cc(OCc3cccc(OCc4ccc5ccccc5n4)c3)ccc21 (stereo not given),2.1 nM
5,O=C(Nc1cccc2c1OC(c1nnn[nH]1)CC2=O)c1ccc(OCc2ccc3ccccc3n2)cc1 (stereo not given),1.1 nM
6,O=C1CC(c2nnn[nH]2)Oc2c(COc3ccc(OCc4ccc5ccccc5n4)cc3)cccc21 (stereo not given),15 nM
7,O=C1CC(c2nnn[nH]2)Oc2cc(COc3cccc(OCc4ccc5ccccc5n4)c3)ccc21 (stereo not given),0.12 nM
8,CCOC(=O)C1CC(=O)c2ccc(COc3cccc(OCc4ccc5ccccc5n4)c3)cc2O1 (stereo not given),30 nM
9,O=C1CC(C(=O)O)Oc2ccc(Cl)c(OCc3ccc(OCc4ccc5ccccc5n4)cc3)c21 (stereo not given),18 nM
10,O=C1CC(C(=O)O)Oc2ccc(OCc3cccc(OCc4ccc5ccccc5n4)c3)cc21 (stereo not given),1.3 nM
11,O=C(O)c1cc(=O)c2ccc(OCc3ccc4ccccc4n3)cc2o1,7000 nM
12,CC1(CCC(=O)O)CC(=O)c2ccc(OCc3cccc(OCc4ccc5ccccc5n4)c3)cc2O1 (stereo not given),1.2 nM
13,O=C1CC(c2nnn[nH]2)Oc2cc(/C=C/c3cccc(OCc4ccc5ccccc5n4)c3)ccc21 (stereo not given),2.5 nM
14,O=C1CC(C(=O)O)Oc2cc(COc3ccc(OCc4ccc5ccccc5n4)cc3)ccc21 (stereo not given),6.3 nM
